ChEMBL document CHEMBL1142530, “Chalcogenopyrylium dyes as inhibitors/modulators of P-glycoprotein in multidrug-resistant cells” (Bioorg Med Chem, 2008)
Calls of active or inactive are those of the source. No cut-off for these calls is given here.

Tests used:
[1] = Octanol-water partition coefficient, log P after 5 hrs by shake flask method; type: physicochemical
MDCK-II [2] = experiment: Apparent permeability from apical to basolateral side of MDCK2 cells over expressing MDR1 after 1 hr; type: functional, cell-based; conditions: Canis lupus familiaris
MDCK-II [3] = experiment: Apparent permeability from apical to basolateral side of MDCK2 cells over expressing MDR1 at 5 uM after 1 hr in presence of 25 uM LSN335984; type: functional, cell-based; conditions: Canis lupus familiaris
MDCK-II [4] = experiment: Apparent permeability from basolateral to apical side of MDCK2 cells over expressing MDR1 at 5 uM after 1 hr in presence of 25 uM LSN335984; type: functional, cell-based; conditions: Canis lupus familiaris
MDCK-II [5] = experiment: Enhancement of calcein-AM uptake in MDCK2 cells over expressing MDR1 after 20 mins; type: functional, cell-based; conditions: Canis lupus familiaris
MDCK-II [6] = experiment: Efflux ratio of permeability from basolateral to apical side to apical to basolateral side in MDCK2 cells over expressing MDR1 to permeability from basolateral to apical side to apical to basolateral side in MDCK2 cells over expressing MDR1 in presence of 25 uM LSN335984; type: functional, Canis lupus familiaris
Mus musculus [7] = species on record: Mus musculus; experiment: Inhibition of verapamil-induced residual ATPase activity in lipid activated mouse P-glycoprotein mdr3 cys-less mutant assessed as ATP hydrolysis per ug of protein
MDCK-II [8] = experiment: Passive apparent permeability across MDCK2 cells over expressing MDR1 in presence of 25 uM LSN335984 after 1 hr; type: functional, cell-based; conditions: Canis lupus familiaris
[9] = biological target: T1, MDR1 (ABCB1, P-glycoprotein) (Homo sapiens, UniProt P08183); experiment: Inhibition of MDR1 overexpressed in MDCK cells at 5 uM relative to LSN335984; type: cell-based; conditions: dog
[10] = Inhibition of verapamil-induced ATPase activity in lipid activated mouse P-glycoprotein mdr3 cys-less mutant assessed as ATP hydrolysis per ug of protein
MDCK-II [11] = experiment: Apparent permeability from basolateral to apical side of MDCK2 cells over expressing MDR1 after 1 hr; type: functional, cell-based; conditions: Canis lupus familiaris
[12] = biological target: T1, MDR1 (ABCB1, P-glycoprotein); experiment: (§1) Inhibition of MDR1 overexpressed in MDCK cells at 25 uM relative to LSN335984; type: cell-based; conditions: dog, MDCK-MDR1
MDCK-II [13] = experiment: Apparent permeability from basolateral to apical side of MDCK2 cells over expressing MDR1 at 5 uM after 1 hr; type: functional, cell-based; conditions: Canis lupus familiaris
Mus musculus [14] = species on record: Mus musculus; experiment: Inhibition of verapamil-induced specific ATPase activity in lipid activated mouse P-glycoprotein mdr3 cys-less mutant assessed as ATP hydrolysis per ug of protein at 100 uM
[15] = Binding affinity to P-glycoprotein in presence of Escherichia coli sham lipids
DNA = experiment: Binding affinity to calf thymus DNA relative to control; type: nucleic-acid assay; conditions: Bos taurus
Mus musculus [16] = species on record: Mus musculus; experiment: Inhibition of verapamil-induced ATPase activity in lipid activated mouse P-glycoprotein mdr3 cys-less mutant assessed as ATP hydrolysis at 100 uM
[17] = Inhibition of [3H]vinblastine transport in human PEAK stable cells over expressing MDR1 assessed as [3H]vinblastine accumulation after 2.5 mins; type: functional, cell-based
MDCK-II [18] = experiment: Inhibition of [3H]vinblastine transport in MDCK2 cells over expressing MDR1 assessed as [3H]vinblastine accumulation after 2.5 mins; type: functional, cell-based; conditions: Canis lupus familiaris
Mus musculus [19] = species on record: Mus musculus; experiment: Activity of verapamil-dependent ATPase in lipid activated cys-less mouse mdr3 P-glycoprotein assessed per ug of protein
[20] = biological target: ATP-dependent translocase ABCB1 (Homo sapiens, UniProt P08183); experiment: as §1; type: cell-based; conditions: dog, mdck, 25 µM
Mus musculus [21] = species on record: Mus musculus; experiment: (§2) Activity of verapamil-dependent ATPase in lipid activated mouse P-glycoprotein mdr3 cys-less mutant
[22] = as §2

T1 sequence (P08183 whole entry): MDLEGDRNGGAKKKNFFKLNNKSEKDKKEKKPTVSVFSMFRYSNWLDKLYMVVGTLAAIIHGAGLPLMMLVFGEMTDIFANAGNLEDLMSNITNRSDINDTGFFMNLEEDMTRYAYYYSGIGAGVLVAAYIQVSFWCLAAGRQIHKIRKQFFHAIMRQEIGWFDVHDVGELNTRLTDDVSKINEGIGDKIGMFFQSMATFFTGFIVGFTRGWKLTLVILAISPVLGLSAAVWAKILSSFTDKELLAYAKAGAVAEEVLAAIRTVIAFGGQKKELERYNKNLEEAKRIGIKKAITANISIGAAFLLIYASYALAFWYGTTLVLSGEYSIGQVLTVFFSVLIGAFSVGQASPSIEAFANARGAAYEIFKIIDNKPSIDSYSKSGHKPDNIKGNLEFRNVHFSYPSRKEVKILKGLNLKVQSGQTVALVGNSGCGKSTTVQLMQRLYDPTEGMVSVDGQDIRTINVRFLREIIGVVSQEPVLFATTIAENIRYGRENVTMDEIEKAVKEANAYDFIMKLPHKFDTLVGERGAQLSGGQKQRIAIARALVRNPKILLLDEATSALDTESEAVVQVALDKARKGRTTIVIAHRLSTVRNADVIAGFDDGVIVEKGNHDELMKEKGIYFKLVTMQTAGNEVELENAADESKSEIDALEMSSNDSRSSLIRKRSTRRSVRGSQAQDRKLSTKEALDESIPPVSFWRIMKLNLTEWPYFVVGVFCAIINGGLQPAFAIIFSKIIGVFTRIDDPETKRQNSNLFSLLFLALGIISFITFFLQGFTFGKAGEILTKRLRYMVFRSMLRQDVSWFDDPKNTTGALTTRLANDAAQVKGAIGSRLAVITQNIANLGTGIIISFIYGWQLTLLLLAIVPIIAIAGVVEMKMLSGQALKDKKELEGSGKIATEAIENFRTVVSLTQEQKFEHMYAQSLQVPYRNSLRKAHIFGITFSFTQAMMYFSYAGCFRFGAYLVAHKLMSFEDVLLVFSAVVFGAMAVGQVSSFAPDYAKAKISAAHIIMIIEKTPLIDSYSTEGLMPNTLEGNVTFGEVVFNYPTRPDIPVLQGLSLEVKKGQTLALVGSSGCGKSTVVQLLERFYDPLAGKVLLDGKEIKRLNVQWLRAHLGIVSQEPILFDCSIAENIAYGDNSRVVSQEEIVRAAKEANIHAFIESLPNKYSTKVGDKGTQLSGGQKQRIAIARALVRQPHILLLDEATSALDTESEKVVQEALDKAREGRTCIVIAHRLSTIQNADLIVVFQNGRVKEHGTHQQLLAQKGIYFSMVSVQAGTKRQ
ATP-dependent translocase ABCB1, sequence (P08183 whole entry): as above

Compound	logP at 5 h [1]	Activity (Mus musculus [7])	IC50 [10]	Activity (Mus musculus [14])	permeability (MDCK-II [2])	permeability (MDCK-II [3])	permeability (MDCK-II [4])	EC50 (MDCK-II [5])	Ratio (MDCK-II [6])	Papp (MDCK-II [8])	inhibition at 5 µM [9]	permeability (MDCK-II [11])	inhibition at 25 µM [12]	permeability (MDCK-II [13])	further results
CN(C)c1ccc(-c2cc(-c3ccccc3)[s+]c(-c3ccc(N)cc3)c2)cc1.F[P-](F)(F)(F)(F)F	0	0.9 nmol/min	5.3 µM		0.37 ×10⁻⁶ cm/s	19%	20%	14 µM	70	0.31 ×10⁻⁶ cm/s	7%	17 ×10⁻⁶ cm/s	14%	24%	
CN(C)c1ccc(-c2cc(-c3cccs3)cc(-c3ccc(N(C)C)cc3)[te+]2)cc1	2.2	0.9 nmol/min	7.9 µM												
CN(C)c1ccc(-c2cc(-c3ccc(N)cc3)[s+]c(-c3ccc(N(C)C)cc3)c2)cc1.F[P-](F)(F)(F)(F)F	2.2	1.6 nmol/min	0.7 µM	0.93 nmol/min	5.3 ×10⁻⁶ cm/s	16%	17%	35 µM	1.6	3.2 ×10⁻⁶ cm/s	2%	4.2 ×10⁻⁶ cm/s	16%	19%	
CN(C)c1ccc(-c2cc(-c3ccccc3)[se+]c(-c3ccc(N)cc3)c2)cc1.F[P-](F)(F)(F)(F)F	0.8				0.35 ×10⁻⁶ cm/s	18%	13%	20 µM	57	0.28 ×10⁻⁶ cm/s	5%	12 ×10⁻⁶ cm/s	22%	18%	
Nc1ccc(-c2cc(-c3ccc(N4CCOCC4)cc3)cc(-c3ccc(N4CCOCC4)cc3)[s+]2)cc1	2.1	0.7 nmol/min	11 µM												
CCCc1cc(-c2ccc(N(C)C)cc2)cc(-c2ccc(N(C)C)cc2)[s+]1.[I-]	1.2	2.5 nmol/min	> 100 µM	1.37 nmol/min	0.15 ×10⁻⁶ cm/s	8%	11%	9.8 µM	390	2.2 ×10⁻⁶ cm/s	15%	37 ×10⁻⁶ cm/s	87%	11%	Kapp [15]: 2.2 ×10⁻⁶ M; Activity (Mus musculus [16]): inactive; Activity (DNA): > 60
Cc1cc(C)c(-c2cc(-c3ccc(N(C)C)cc3)[s+]c(-c3ccc(N(C)C)cc3)c2)c(C)c1	2.1	0 nmol/min	71 µM	0.3 nmol/min											
CN(C)c1ccc(-c2cc(-c3ccc(N)cc3)[se+]c(-c3ccc(N)cc3)c2)cc1.F[P-](F)(F)(F)(F)F	2.2	2.5 nmol/min	> 100 µM		0.34 ×10⁻⁶ cm/s	14%	10%	25 µM	17	0.28 ×10⁻⁶ cm/s	6%	4.5 ×10⁻⁶ cm/s	29%	12%	Activity (Mus musculus [16]): inactive
Cc1cc(C)c(-c2cc(-c3ccc(N(C)C)cc3)[te+]c(-c3ccc(N(C)C)cc3)c2)c(C)c1.F[P-](F)(F)(F)(F)F	2.4	0.4 nmol/min	1.2 µM	0.44 nmol/min	0.85 ×10⁻⁶ cm/s	7%	5%	5.4 µM	1.4	0.48 ×10⁻⁶ cm/s	32%	0.42 ×10⁻⁶ cm/s		3%	IC50 [17]: 4.3 µM; IC50 (MDCK-II [18]): 9.6 µM; Vmax (Mus musculus [19]): 2.67 nmol/min; inhibition (INH) [20]: 230%; Km (Mus musculus [21]): 16 µM; Ki [22]: 0.04 µM
CN(C)c1ccc(-c2cc(-c3ccc(N(C)C)cc3)[se+]c(C(C)(C)C)c2)cc1.[I-]	1.6				0.23 ×10⁻⁶ cm/s	37%	23%	6.7 µM	161	0.28 ×10⁻⁶ cm/s	23%	29 ×10⁻⁶ cm/s	67%	26%	

Further lines, with some results ahead:

logP at 5 h [1]	Activity (Mus musculus [7])	IC50 [10]	Activity (Mus musculus [14])	Compound	permeability (MDCK-II [2])	permeability (MDCK-II [3])	permeability (MDCK-II [4])	EC50 (MDCK-II [5])	Ratio (MDCK-II [6])	Papp (MDCK-II [8])	inhibition at 5 µM [9]	permeability (MDCK-II [11])	inhibition at 25 µM [12]	permeability (MDCK-II [13])	further results
1.5	1.4 nmol/min	0.88 µM	0.7 nmol/min	CN(C)c1ccc(-c2cc(-c3ccc(N(C)C)cc3)[s+]c(C(C)(C)C)c2)cc1.[I-]	0.53 ×10⁻⁶ cm/s	44%	25%	7.1 µM	134	0.34 ×10⁻⁶ cm/s	25%	34 ×10⁻⁶ cm/s	60%	37%	Kapp [15]: 4.7 ×10⁻⁷ M; Activity (DNA): > 60
1.3	1 nmol/min	3.1 µM		c1ccc(-c2cc(-c3ccc(N4CCOCC4)cc3)[s+]c(-c3ccc(N4CCOCC4)cc3)c2)cc1											
2.3	0.4 nmol/min	55 µM		CN(C)c1ccc(-c2cc(-c3ccc(N4CCOCC4)cc3)[se+]c(-c3ccc(N4CCOCC4)cc3)c2)cc1											
2.1	1 nmol/min	30 µM		c1ccc(-c2cc(-c3ccc(N4CCOCC4)cc3)cc(-c3ccc(N4CCOCC4)cc3)[s+]2)cc1											
0.1	1.3 nmol/min	1 µM	0.74 nmol/min	CCc1cc(-c2ccc(N(C)C)cc2)cc(-c2ccc(N(C)C)cc2)[s+]1											
0.6	0.5 nmol/min	15 µM	0.48 nmol/min	Cc1cc(-c2ccc(N(C)C)cc2)cc(-c2ccc(N(C)C)cc2)[s+]1.[I-]	0.58 ×10⁻⁶ cm/s	24%	17%	16 µM	14	0.42 ×10⁻⁶ cm/s	13%	5.1 ×10⁻⁶ cm/s	74%	25%	Kapp [15]: 4.5 ×10⁻⁶ M; Activity (DNA): > 60
1.2	0.9 nmol/min	5.7 µM		Cc1cc(-c2ccc(N(C)C)cc2)[s+]c(-c2ccc(N(C)C)cc2)c1											
